pEC50, pIC50: −log10 of the molar value. e = 2'-O-(2-methoxyethyl) (MOE); k = constrained ethyl (cEt); d = 2'-deoxy (DNA); m = 2'-O-methyl; f = 2'-fluoro
Key:
[1] = system: Pcy/DBA mice; assay: Efficacy in Pcy/DBA mouse model of PKD, alone and with tolvaptan; assay type: in vivo; settings: 0.3% Tolvaptan in chow alone (vehicle SC);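 note: dosing began at 6 weeks of age, with endpoints collected 7 days after the last dose and PBS-injected wild-type DBA/2J mice as the normal reference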
Procedure: The efficacy of RG-NG-1015 was also evaluated in the Pcy/DBA mouse model of PKD alone and in combination with tolvaptan.
As outlined in FIGS. 6A and 6B, five groups of male Pcy/DBA mice (n=13 per treatment group) were treated subcutaneously with PBS or RG-NG-1015 at 25, 5, 1, or 0.2 mg/kg once every two weeks (Q2W). Two groups of male Pcy/DBA mice (n=13 per group) were also treated with RG-NG-1015 at 50 mg/kg once every four weeks (Q4W) or at 12.5 mg/kg once weekly (QW). Another four groups of male Pcy/DBA mice (n=13 per group) were treated subcutaneously with PBS or RG-NG-1015 at 25, 5, or 1 mg/kg Q2W in combination with tolvaptan at 0.3% (w/w chow) ad libitum. A group of male WT-BDA/2J mice received subcutaneous injections of PBS Q2W was included in the study as a normal range reference. Mice were randomized into treatment groups at 5 weeks of age, and treatment started at 6 weeks of age for 17 weeks and were sacrificed 7 days after the final treatment. Kidney weight, body weight, kidney cyst index, urine Ngal-to-Creatinine ratio (Ngal/Cr) were measured.

[2] = target: AMPA-R; assay: [3H]AMPA radioligand binding assay on rat brain synaptic membranes; settings: for % Inhibition @ Concentration 100 uM: Table 8 (3′-terminal nucleobase/sugar variants); for % Inhibition @ Concentration 0.1 uM: Table 8, 0.1 uM; for % Inhibition @ Concentration 1 uM: Table 8, 1 uM; for % Inhibition @ Concentration 10 uM: Table 8, 10 uM;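 for all read-outs here: competition binding in which test compounds at rising concentrations displace [3H]AMPA from AMPA-R on rat brain synaptic membranes, with reduced bound radioligand as read-out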
Procedure: The activity of anti-miR-17 compounds was evaluated in a radioligand binding assay which measured the binding of the [^3H] AMPA ligand to the AMPA-R present on rat brain synaptic membranes, in the presence of increasing concentrations of anti-miR-17 compound, anti-miR-17 compounds with affinity for the AMPA-R will bind to and compete with the binding of the [^3H] AMPA ligand.
5.0 nM of the ligand [^3H] AMPA, 1.0 mM of the non-specific ligand L-Glutamic acid, and anti-miR compound at uM concentrations were incubated with synaptic membranes prepared from Wistar rat cerebral cortex for 90 minutes.
The compounds were tested in the radioligand binding assay described herein, to determine the ability of the anti-miR-17 compounds to and compete with the binding of the [3H] AMPA ligand.

[3] = system: miR-17; assay: miR-17 luciferase sensor assay in HeLa cells; assay type: cell-based
Procedure: The in vitro potency of certain compounds was evaluated using a miR-17 luciferase sensor assay which uses a luciferase reporter vector for miR-17, with two fully complementary miR-17 binding sites in tandem in the 3′-UTR of the luciferase gene. HeLa cells were co-transfected with the luciferase reporter vector and an exogenous miR-17-expression vector that acted to repress the luciferase signal.

Compound: Cc1ccccc1C(=O)Nc1ccc(C(=O)N2CCCC(O)c3cc(Cl)ccc32)c(C)c1 (stereo not drawn) [Tolvaptan, tolvaptan, reference compound]
- Mean Cystic Area [1]: 44.68%
- Mean Cystic Area % Inhibition [1]: 29.2%
- Mean KW/BW [1]: 59.3 mg/g
- Mean KW/BW % Inhibition [1]: 44.9%
- Mean Urine Ngal/Cr [1]: 8.73 mg/mg
- Mean Urine Ngal/Cr % Inhibition [1]: 62.1%

Compound: ASGSCMAFCFUFUMUSNM [RG-NG-1036]
- pIC50 ([2]; Table 8): 4.73
- % Inhibition @ Concentration 100 uM [2]: 78.1%
- % Inhibition @ Concentration 0.1 uM [2]: 19.2%
- % Inhibition @ Concentration 1 uM [2]: 11.3%
- % Inhibition @ Concentration 10 uM [2]: 36.2%

Compound: ASGSCMALCFUFUMUSCS [RG-NG-1026]
- pIC50 ([2]; Experiment #2): < 4.00
- % Inhibition @ 0.1 uM ([2]; Experiment #2, 0.1 uM): −3.3%
- % Inhibition @ 1 uM ([2]; Experiment #2, 1 uM): −1.1%
- % Inhibition @ 10 uM ([2]; Experiment #2, 10 uM): −3.5%
- % Inhibition @ 100 uM ([2]; Experiment #2, 100 uM): 2.3%

Compound: ASGSCMASCMUSUMUSGS [RG-NG-1003]
- pIC50 ([2]; Experiment #1): 5.03
- % Inhibition @ 0.1 uM ([2]; Experiment #1, 0.1 uM): 5.7%
- % Inhibition @ 1 uM ([2]; Experiment #1, 1 uM): 13.9%
- % Inhibition @ 10 uM ([2]; Experiment #1, 10 uM): 56.9%
- % Inhibition @ 100 uM ([2]; Experiment #1, 100 uM): 77.8%

Compound: ASGSCSAFCFUFUMUSCS [RG-NG-1027]
- pIC50 ([2]; Experiment #2): < 4.00
- % Inhibition @ 0.1 uM ([2]; Experiment #2, 0.1 uM): −2.2%
- % Inhibition @ 1 uM ([2]; Experiment #2, 1 uM): 2.3%
- % Inhibition @ 10 uM ([2]; Experiment #2, 10 uM): −2.2%
- % Inhibition @ 100 uM ([2]; Experiment #2, 100 uM): 3%

Compound: ASGSCSALCFUFUMUSCS [RG-NG-1028]
- pIC50 ([2]; Experiment #2): < 4.00
- % Inhibition @ 0.1 uM ([2]; Experiment #2, 0.1 uM): 15.7%
- % Inhibition @ 1 uM ([2]; Experiment #2, 1 uM): 2.1%
- % Inhibition @ 10 uM ([2]; Experiment #2, 10 uM): 2%
- % Inhibition @ 100 uM ([2]; Experiment #2, 100 uM): 2.7%

Compound: ASGSCSASCSUSUSUS [RG-NG-1002]
- pIC50 ([2]; Experiment #1): < 4.00
- % Inhibition @ 0.1 uM ([2]; Experiment #1, 0.1 uM): 0%
- % Inhibition @ 1 uM ([2]; Experiment #1, 1 uM): −2.0%
- % Inhibition @ 10 uM ([2]; Experiment #1, 10 uM): −16.9%
- % Inhibition @ 100 uM ([2]; Experiment #1, 100 uM): 24.0%
- pIC50 ([2]; Experiment #2): < 4.00
- % Inhibition @ 0.1 uM ([2]; Experiment #2, 0.1 uM): −5.5%
- % Inhibition @ 1 uM ([2]; Experiment #2, 1 uM): 4.6%
- % Inhibition @ 10 uM ([2]; Experiment #2, 10 uM): −2.1%
- % Inhibition @ 100 uM ([2]; Experiment #2, 100 uM): 24.6%

Compound: CETEGSCEAECETEGSTEADASGSCMAFCFUFUMUSGS (CTGCACTGTAAGCACUUUG; sugars from the 5' end eekeeeekedkkmfffmkk, backbone and methylation of C not given here) [RG-NG-1040]
- pIC50 ([2]; Table 8): 4.54
- % Inhibition @ Concentration 100 uM [2]: 64.1%
- % Inhibition @ Concentration 0.1 uM [2]: 10.4%
- % Inhibition @ Concentration 1 uM [2]: 14.4%
- % Inhibition @ Concentration 10 uM [2]: 38.9%

Compound: GSCEAECETEGSTEADASGSCMAFCFUFUMUSGS (GCACTGTAAGCACUUUG; sugars from the 5' end keeeekedkkmfffmkk, backbone and methylation of C not given here) [RG-NG-1032]
- pIC50 ([2]; Table 8): 5.93
- % Inhibition @ Concentration 100 uM [2]: 92%
- % Inhibition @ Concentration 0.1 uM [2]: 24.3%
- % Inhibition @ Concentration 1 uM [2]: 43.8%
- % Inhibition @ Concentration 10 uM [2]: 78.3%
- Log2FC (37.5 nM) ([3]; 37.5 nM): 3.85
- pEC50 ([3]; HeLa cells, 18- to 24-hour transfection): > 9.00

Compound: TEAASGSCMAFCFUFUMUSCS (TAAGCACUUUC; 2'-MOE at 1, cEt at 3, 4, 10, 11, 2'-O-methyl at 5, 9, 2'-fluoro at 6, 7, 8, other sugars and backbone not given here) [RG-NG-1021]
- pIC50 ([2]; Experiment #3): < 4.00
- % Inhibition @ 0.1 uM ([2]; Experiment #3, 0.1 uM): −2%
- % Inhibition @ 1 uM ([2]; Experiment #3, 1 uM): −10.9%
- % Inhibition @ 10 uM ([2]; Experiment #3, 10 uM): −11.5%
- % Inhibition @ 100 uM ([2]; Experiment #3, 100 uM): −1.5%

Compound: TEAFASGSCMAFCFUFUMUSCS (TAAGCACUUUC; 2'-MOE, S-cEt, 2'-F, 2'-OMe modifications; modified_base 1 OTHER; thymine; misc_feature 1..11 Synthetic: RG-NG-1022; modified_base 1..2 OTHER; 2'-O-methoxyethyl nucleoside; modified_base 3..4 OTHER; S-constrained ethyl nucleoside; modified_base 5 OTHER; 2'-O-methyl nucleoside; modified_base 6..8 OTHER; 2'-fluoro nucleoside; modified_base 9 OTHER; modified_base 10..11 OTHER)
- pIC50 ([2]; Experiment #3): < 4.00
- % Inhibition @ 0.1 uM ([2]; Experiment #3, 0.1 uM): −23.5%
- % Inhibition @ 1 uM ([2]; Experiment #3, 1 uM): −5.4%
- % Inhibition @ 10 uM ([2]; Experiment #3, 10 uM): −7%
- % Inhibition @ 100 uM ([2]; Experiment #3, 100 uM): −10.9%

Compound: TEGSTEAASGSCMAFCFUFUMUSCS (TGTAAGCACUUUC; anti-miR; 2'-MOE at 1, 3, cEt at 2, 5, 6, 12, 13, 2'-O-methyl at 7, 11, 2'-fluoro at 8, 9, 10, other sugars and backbone not given here) [RG-NG-1020]
- pIC50 ([2]; Experiment #3): < 4.00
- % Inhibition @ 0.1 uM ([2]; Experiment #3, 0.1 uM): 17%
- % Inhibition @ 1 uM ([2]; Experiment #3, 1 uM): 6.6%
- % Inhibition @ 10 uM ([2]; Experiment #3, 10 uM): −23.3%
- % Inhibition @ 100 uM ([2]; Experiment #3, 100 uM): −7.9%

Compound: USASAMGCSASCSUMUMUSGS (antisense UAAGCACUUUG; cEt at 1, 2, 5, 6, 7, 10, 11, 2'-O-methyl at 3, 8, 9, other sugars and backbone not given here) [RG-NG-1005]
- pIC50 ([2]; Experiment #1): < 4.00
- % Inhibition @ 0.1 uM ([2]; Experiment #1, 0.1 uM): 10.8%
- % Inhibition @ 1 uM ([2]; Experiment #1, 1 uM): −1.3%
- % Inhibition @ 10 uM ([2]; Experiment #1, 10 uM): 0.8%
- % Inhibition @ 100 uM ([2]; Experiment #1, 100 uM): 28.3%

Compound: USASASGSCSASCSUSUSUSGS [RG-NG-1004]
- pIC50 ([2]; Experiment #1): 4.76
- % Inhibition @ 0.1 uM ([2]; Experiment #1, 0.1 uM): −4.7%
- % Inhibition @ 1 uM ([2]; Experiment #1, 1 uM): 4.7%
- % Inhibition @ 10 uM ([2]; Experiment #1, 10 uM): 44.2%
- % Inhibition @ 100 uM ([2]; Experiment #1, 100 uM): 76.1%
